From paper PMC4586081 (Journal of neuroscience research, 2008)

Assays:
α3β2 nAChR = α3β2 nAChR (Rattus norvegicus, UniProt P04757+P12390); assay: two-electrode voltage clamp, Xenopus oocytes, peak current; assay type: cell-based
α3β4 nAChR = α3β4 nAChR (Rattus norvegicus, UniProt P04757+P12392); assay: as above; assay type: cell-based
Chain of α3β4 nAChR (P04757 26-499): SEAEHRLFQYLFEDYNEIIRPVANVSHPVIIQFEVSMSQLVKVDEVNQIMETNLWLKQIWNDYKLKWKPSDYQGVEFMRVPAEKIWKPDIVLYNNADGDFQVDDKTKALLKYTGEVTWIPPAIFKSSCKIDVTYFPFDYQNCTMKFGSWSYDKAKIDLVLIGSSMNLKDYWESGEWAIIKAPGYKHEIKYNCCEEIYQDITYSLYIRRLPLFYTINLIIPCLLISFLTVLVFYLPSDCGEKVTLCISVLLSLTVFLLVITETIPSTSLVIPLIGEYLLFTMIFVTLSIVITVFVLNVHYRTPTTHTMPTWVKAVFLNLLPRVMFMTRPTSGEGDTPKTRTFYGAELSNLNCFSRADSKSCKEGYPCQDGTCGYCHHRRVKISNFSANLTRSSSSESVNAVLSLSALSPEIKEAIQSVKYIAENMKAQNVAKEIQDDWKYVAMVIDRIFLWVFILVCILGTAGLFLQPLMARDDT
Chain of α3β4 nAChR (P12392 21-495): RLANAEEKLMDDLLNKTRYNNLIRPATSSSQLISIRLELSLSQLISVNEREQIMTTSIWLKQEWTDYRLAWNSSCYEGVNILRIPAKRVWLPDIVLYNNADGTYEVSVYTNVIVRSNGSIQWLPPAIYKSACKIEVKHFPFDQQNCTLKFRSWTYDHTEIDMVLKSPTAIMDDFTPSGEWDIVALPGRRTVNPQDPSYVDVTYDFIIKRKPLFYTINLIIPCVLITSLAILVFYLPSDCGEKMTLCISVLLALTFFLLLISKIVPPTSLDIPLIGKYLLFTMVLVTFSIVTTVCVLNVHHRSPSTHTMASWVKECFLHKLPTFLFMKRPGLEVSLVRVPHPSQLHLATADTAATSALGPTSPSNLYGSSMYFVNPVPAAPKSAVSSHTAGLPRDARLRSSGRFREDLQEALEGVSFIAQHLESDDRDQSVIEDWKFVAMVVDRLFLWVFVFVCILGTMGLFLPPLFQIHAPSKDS

Chain of α3β2 nAChR (P04757 26-499): as the sequence (P04757 26-499) above
Chain of α3β2 nAChR (P12390 25-500): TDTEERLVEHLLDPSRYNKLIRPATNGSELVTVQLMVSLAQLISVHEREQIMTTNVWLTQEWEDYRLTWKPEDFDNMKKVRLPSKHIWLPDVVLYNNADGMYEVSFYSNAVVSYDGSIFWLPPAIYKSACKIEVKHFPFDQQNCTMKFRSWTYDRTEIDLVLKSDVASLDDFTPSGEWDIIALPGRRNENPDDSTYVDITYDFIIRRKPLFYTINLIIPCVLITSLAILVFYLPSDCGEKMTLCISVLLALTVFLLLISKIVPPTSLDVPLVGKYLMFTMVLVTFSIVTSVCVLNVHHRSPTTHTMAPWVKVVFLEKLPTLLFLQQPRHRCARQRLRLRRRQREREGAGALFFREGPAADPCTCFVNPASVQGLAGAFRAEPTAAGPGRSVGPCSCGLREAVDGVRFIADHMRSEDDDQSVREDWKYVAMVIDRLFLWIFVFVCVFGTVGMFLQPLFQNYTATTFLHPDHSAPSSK

For C[N+]1(C)CCN(c2ccccc2)CC1 [DMPP], the EC50 (α3β2 nAChR) was 55 µM and the EC50 (α3β4 nAChR) was 58 µM.
